The nature of assay [1]: Inhibition of Candida albicans Nce103 beta-carbonic anhydrase by stopped flow CO2 hydration assay.
A short description of assay [2]: Inhibition of Cryptococcus neoformans Can2 beta-carbonic anhydrase by stopped flow CO2 hydration assay.
The target of another assay is Carbonic anhydrase 1 (Homo sapiens, UniProt P00915). As to the kind of experiment: Inhibition of human cytosolic carbonic anhydrase 1 by stopped flow CO2 hydration assay.
In the next assay the target is Carbonic anhydrase 2 (Homo sapiens, UniProt P00918).

Sequence of Carbonic anhydrase 1 (P00915 whole entry): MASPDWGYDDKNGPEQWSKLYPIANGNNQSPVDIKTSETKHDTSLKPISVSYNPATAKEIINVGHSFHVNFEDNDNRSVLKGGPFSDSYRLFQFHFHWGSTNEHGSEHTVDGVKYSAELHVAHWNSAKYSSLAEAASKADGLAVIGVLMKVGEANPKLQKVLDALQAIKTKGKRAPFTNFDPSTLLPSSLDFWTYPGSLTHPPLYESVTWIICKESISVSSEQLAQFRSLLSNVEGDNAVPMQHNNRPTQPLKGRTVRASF

Broadly, the Ki is a measure of affinity in units of concentration, obtained from inhibition or displacement. Take `CCCCC(CC)C(=O)NO` (centres undefined): the Ki in assay [1] amounted to 3.05 µM; in assay [2] it was 0.29 µM.

Consider `CCCCC(=O)[O-].[Na+]` [SODIUM VALERATE], for which the affinity on Carbonic anhydrase 1, expressed as Ki, was 55.3 µM.

With `O=C(O)c1ccc(CCl)cc1`, the inhibition constant (Ki) in assay [1] worked out at 4.71 µM; in assay [2], 3.65 µM.

On to `O=C(O)c1ccc(O)cc1`, for which the results for the inhibitory constant (Ki) (in assay [1]; on Carbonic anhydrase 1; in assay [2]) were 0.11 µM, 7.61 µM and 0.0095 µM, respectively.

On to `CCCCCC(C)C(=O)O` (centres undefined), for which the Ki stood at 11.7 µM in assay [1], 110 µM on Carbonic anhydrase 2 and 39.3 µM in assay [2].

For `CCC(=O)[O-].[Na+]` [SODIUM PROPIONATE], on Carbonic anhydrase 1, the affinity corresponds to a Ki of 1010 µM.

Consider `CCCCC(CC)CCC(=O)O` (centres undefined), for which the inhibitory constant (Ki) in assay [1] was 37.9 µM; at Carbonic anhydrase 1, 380 µM; in assay [2], 41.2 µM.

`O=C(O)c1ccc(F)cc1`: the Ki is 1.09 µM in assay [1], 7.39 µM at Carbonic anhydrase 1, 3.34 µM at Carbonic anhydrase 2 and 0.13 µM in assay [2].

In the case of `COc1ccc(C(=O)O)cc1` [p-ANISIC ACID], the values for the Ki at Carbonic anhydrase 1 and on Carbonic anhydrase 2 were 9.06 µM and 8.03 µM, respectively.

Regarding `CC(C)CCC(=O)O`, the Ki in assay [1] worked out at 2.14 µM.

`CCCCC(CC)C(=O)OC` (centres undefined): the results for the Ki in assay [1] and in assay [2] were 5.6 µM and 0.74 µM, respectively.

In the case of `COc1ccc(C(=O)O)cc1`, the inhibitory constant (Ki) in assay [1] amounted to 0.15 µM; at Carbonic anhydrase 1, 9.06 µM; on Carbonic anhydrase 2 it was 8.03 µM; in assay [2], 0.0099 µM.

As to `Nc1ccc(C(=O)O)cc1` [AMINOBENZOATE SODIUM], the inhibition constant Ki in assay [1] amounted to 2.95 µM; at Carbonic anhydrase 1, 8.4 µM; at Carbonic anhydrase 2, 8.13 µM; in assay [2], 0.12 µM.

Consider `CCCCC(C)C(=O)O` (centres undefined), for which the Ki in assay [1] worked out at 3.73 µM; at Carbonic anhydrase 1, 380 µM; at Carbonic anhydrase 2, 103 µM; in assay [2], 3.23 µM.

The molecule `O=C[O-].[Na+]` [SODIUM FORMATE] yielded a Ki on Carbonic anhydrase 1 of 1040 µM.

Take `CCCCC(CC)C(=O)NN` (centres undefined): the inhibitory constant (Ki) in assay [1] amounted to 4.56 µM; in assay [2] it was 0.23 µM.

For the molecule `COc1ccc(C(=O)NO)cc1`, the Ki in assay [1] came to 0.47 µM; in assay [2], 0.071 µM.

For the molecule `COc1ccc(C(N)=O)cc1`, the inhibitory constant (Ki) in assay [1] was 0.54 µM; on Carbonic anhydrase 1, 4.34 µM; on Carbonic anhydrase 2 it was 2.18 µM; in assay [2] it was 0.062 µM.

`CCCCCCC(CCCC)C(=O)O` (centres undefined): the Ki in assay [1] worked out at 10.7 µM; at Carbonic anhydrase 1 it was 101 µM.

On to `CC(=O)[O-].[Na+]` [SODIUM ACETATE], for which the inhibition constant (Ki) on Carbonic anhydrase 1 was found to be 10.8 µM.

Consider `CN(C)c1ccc(C(=O)O)cc1`, for which the Ki is 5.2 µM in assay [1], 3.94 µM at Carbonic anhydrase 1, 3.33 µM at Carbonic anhydrase 2 and 0.13 µM in assay [2].

For the molecule `COc1ccc(C(=O)NN)cc1`, the Ki in assay [1] turned out to be 0.81 µM; on Carbonic anhydrase 1, 7.84 µM; on Carbonic anhydrase 2, 5.75 µM; in assay [2] it was 0.087 µM.

Take `COC(=O)c1ccc(OC)cc1` [METHYL 4-METHOXYBENZOATE]: the Ki worked out at 0.61 µM in assay [1] and 0.067 µM in assay [2].

In the case of `CCCCC(CC)C(N)=O` (centres undefined), the inhibition constant (Ki) in assay [1] was found to be 5.7 µM; in assay [2], 0.39 µM.

With `N#Cc1ccc(C(=O)O)cc1`, the results for the Ki in assay [1] and in assay [2] were 4.47 µM and 0.14 µM, respectively.

For the molecule `CC(=O)Nc1ccc(C(=O)[O-])cc1.[Na+]`, the inhibition constant Ki in assay [1] stood at 0.34 µM; on Carbonic anhydrase 1 it was 4.04 µM; on Carbonic anhydrase 2 it was 7.28 µM; in assay [2], 0.32 µM.

In the case of `CCCCC(CC)C(=O)O` (centres undefined) [2-ETHYLHEXANOIC ACID], the Ki on Carbonic anhydrase 1 came out at 450 µM; at Carbonic anhydrase 2, 93 µM.

`O=C(O)c1ccc([N+](=O)[O-])cc1`: the Ki amounted to 4.85 µM in assay [1], 8.8 µM at Carbonic anhydrase 1, 8.56 µM at Carbonic anhydrase 2 and 0.12 µM in assay [2].

`CCCC(=O)[O-].[Na+]` [SODIUM BUTYRATE] showed a Ki at Carbonic anhydrase 1 of 511 µM.

On to `O=C(O)c1ccc(S(=O)(=O)N(Cl)Cl)cc1`, for which the inhibitory constant (Ki) in assay [1] is 4.97 µM; on Carbonic anhydrase 1, 3.88 µM; at Carbonic anhydrase 2, 1.96 µM; in assay [2] it was 0.12 µM.

`CCCCC(CC)C(=O)O` (centres undefined): the Ki in assay [1] worked out at 43.1 µM; at Carbonic anhydrase 1 it was 450 µM; on Carbonic anhydrase 2, 93 µM; in assay [2], 0.95 µM.

With `CCCC(C)C(=O)O` (centres undefined), the Ki was determined as 10.4 µM in assay [1], 310 µM at Carbonic anhydrase 1, 113 µM on Carbonic anhydrase 2 and 10.2 µM in assay [2].

As to `CC(C)CC(=O)O` [SODIUM ISOVALERATE], the Ki in assay [1] was 0.95 µM; at Carbonic anhydrase 1, 300 µM; at Carbonic anhydrase 2, 100 µM; in assay [2], 0.91 µM.

As to `O=C(O)c1ccc(I)cc1`, the inhibition constant (Ki) in assay [1] came to 5.17 µM; in assay [2], 5.46 µM.

As to `CCC(C)CCC(=O)O` (centres undefined), the Ki in assay [1] was found to be 1.25 µM; on Carbonic anhydrase 1, 420 µM; on Carbonic anhydrase 2, 112 µM; in assay [2], 0.8 µM.

In the case of `CC(=O)Nc1nnc(S(N)(=O)=O)s1` [ACETAZOLAMIDE], the inhibition constant (Ki) was determined as 0.13 µM in assay [1] and 0.01 µM in assay [2].

Consider `CC(C)C(=O)[O-].[Na+]` [SODIUM ISOBUTYRATE], for which the inhibition constant Ki stood at 0.98 µM in assay [1], 120 µM at Carbonic anhydrase 1, 350 µM on Carbonic anhydrase 2 and 3.81 µM in assay [2].

For the molecule `CCC(C)CC(=O)O` (centres undefined), the inhibitory constant (Ki) in assay [1] was 11.1 µM; at Carbonic anhydrase 1, 104 µM; on Carbonic anhydrase 2 it was 281 µM; in assay [2], 34.9 µM.

In the case of `Nc1cccc(C(=O)O)c1`, the Ki in assay [1] was determined as 3.4 µM; at Carbonic anhydrase 1 it was 8.79 µM; at Carbonic anhydrase 2 it was 8.63 µM; in assay [2], 3.06 µM.
